Reference: the NIST ThermoML archive (doi:10.1021/je201102x)

Assay: xn = mol fraction of the nth substance listed
Settings: 101 kPa, Liquid, Vibrating tube method

CC(C)CO [2-methyl-1-propanol] + CC(=O)O
mass density [kg/m3]
Settings	293.15 K	298.15 K	303.15 K	313.15 K	323.15 K	333.15 K
x2 = 0.0813	814.94	810.95	806.92	798.73	790.31	781.64
x2 = 0.1574	827.82	823.71	819.56	811.15	802.54	793.68
x2 = 0.2405	842.93	838.69	834.42	825.76	816.92	807.86
x2 = 0.319	858.14	853.78	849.39	840.5	831.45	822.19
x2 = 0.4018	875.36	870.87	866.35	857.21	847.92	838.44
x2 = 0.4803	892.9	888.27	883.63	874.24	864.7	855.01
x2 = 0.5599	911.99	907.22	902.44	892.78	883	873.07
x2 = 0.6396	932.48	927.56	922.63	912.7	902.65	892.49
x2 = 0.7199	954.87	949.79	944.71	934.47	924.16	913.72
x2 = 0.7998	979.04	973.8	968.56	958.02	947.4	936.71
x2 = 0.8786	1004.98	999.57	994.16	983.31	972.4	961.43
x2 = 0.9595	1033.93	1028.35	1022.77	1011.59	1000.4	989.16

CCC(=O)O [propanoic acid] + CCC(C)O
mass density [kg/m3]
Settings	283.15 K	293.15 K	303.15 K	313.15 K	323.15 K	333.15 K
x1 = 0.082	819.64	815.41	811.1	802.26	793.05	783.48
x1 = 0.1717	834.26	829.91	825.51	816.5	807.2	797.57
x1 = 0.2442	846.52	842.08	837.6	828.46	819.08	809.41
x1 = 0.32	859.63	855.12	850.56	841.3	831.82	822.11
x1 = 0.4004	873.99	869.39	864.76	855.37	845.79	836
x1 = 0.4773	887.98	883.3	878.59	869.08	859.4	849.54
x1 = 0.5609	903.61	898.85	894.07	884.41	874.61	864.65
x1 = 0.6404	918.81	913.96	909.09	899.28	889.36	879.3
x1 = 0.7186	934.19	929.25	924.29	914.32	904.27	894.07
x1 = 0.8009	950.85	945.79	940.74	930.57	920.34	910.02
x1 = 0.8776	966.89	961.72	956.55	946.17	935.75	925.26
x1 = 0.9593	984.54	979.23	973.9	963.26	952.61	941.92
